In patent US20260242343A1, “COMPOUND SERVING AS DDR1 KINASE INHIBITOR, AND MEDICINE” (NIPPON SHINYAKU CO., LTD., priority 2022, published 2026):

Experiments:
[1] = target: T1, DDR1 kinase in DDR1-expressing U2OS cells (Homo sapiens, UniProt Q08345); assay: DDR1 kinase inhibitory effect in DDR1-expressing U2OS cells (PathHunter, type I collagen stimulation); type: cell-based; conditions: type I collagen 50 μg/mL, 10% FBS, read-out: DDR-1 IC50
T1 construct: host or cells: U2OS
Procedure: Test compounds in DMSO were prepared at 10 mM and diluted with DMSO to final concentrations of 1000, 100, 10, 1, and 0.1 μM. These solutions were diluted further with E-MEM medium (Fujifilm Wako Pure Chemical Industries, 051-07615) containing 10% fetal bovine serum (FBS, Gibco, 10270106) to 60,000, 6,000, 600, 60, 6, and 0.6 nM to obtain test sample solutions.
DDR1-expressing U2OS cells (DiscoverX, 93-0894C3) suspended at 2.5×10^5 cells/mL in 10% FBS+E-MEM medium were seeded in 384-well plates (DiscoverX, 92-0013) in 20 μL portions and cultured overnight at 37° C. and 5% CO2.
The next day, the test sample solutions as prepared were added at 5 μL/well to final concentrations of 10,000, 1,000, 100, 10, 1, and 0.1 nM. After incubation at 37° C. and 5% CO2 for 1 hour, type I collagen (Nitta Gelatin, 631-00771) was added at 5 μL/well to a final concentration of 50 μg/mL, and cultured overnight at 37° C. and 5% CO2.
The next day, the plate was left at room temperature for 1 hour, after which 5 μL/well of detection solution was added according to the instruction manual for the PathHunter (registered trademark) Detection Kit (DiscoverX, 93-0001). […] The test was performed in duplicate.

[2] = test system: anti-glomerular basement membrane antibody-induced nephritis model; assay: In vivo efficacy study using anti-glomerular basement membrane antibody-induced nephritis model; design: species or system WKY/NCrlCrlj rats; conditions: rat, 24-hour urine
Procedure: The test compound was weighed and suspended in 0.5% methylcellulose (Shin-Etsu Chemical Co., Ltd.)+99.5% Otsuka distilled water (Otsuka Pharmaceutical Factory) to prepare a test sample solution for administration. 300 μL of phosphate buffered saline (Wako, 045-29795) containing 33.3 μg/mL anti-glomerular basement membrane antibody (Chondrex, 70221) was intravenously administered into the tail vein of WKY/NCrlCrlj rats (7-week-old males). 7 days after, the test sample was administered twice a day for 7 days, and the rats were moved to a metabolism/urine collection cage from the 6th to 7th days of the starting of the administration, and the 24-hour urine was collected. The weight of the collected urine was measured. 150 μL of urine was transferred to a sample cup (650-M, BMBio ST). The albumin concentration in urine was measured using a JCA-BM6050 automatic analyzer (JEOL). The amount of albumin in urine was determined with correction for the measured urine weight. The amounts of albumin in urine in the group without administration of anti-glomerular basement membrane antibody and the group with administration of vehicle were set at 0% and 100%, respectively, and the ratio of the amount of albumin in urine in the group administered with the test compound was calculated.

[3] = target: T2, DDR1 protein (Homo sapiens, UniProt Q08345); assay: Evaluation of DDR1 kinase inhibitory activity (LANCE Ultra TR-FRET); type: biochemical; conditions: DDR1 protein 0.5 nM, ATP 100 μM, 2 hours at room temperature; read-out: DDR-1 IC50
T2 construct: purchased Carna Biosciences 08-113
Procedure: The test was performed in duplicate.

[4] = dose 50 mg/kg twice a day for 7 days
[5] = dose 10 mg/kg twice a day for 7 days

T2 sequence (Q08345 19-876 isoform Q08345-2 limits assumed): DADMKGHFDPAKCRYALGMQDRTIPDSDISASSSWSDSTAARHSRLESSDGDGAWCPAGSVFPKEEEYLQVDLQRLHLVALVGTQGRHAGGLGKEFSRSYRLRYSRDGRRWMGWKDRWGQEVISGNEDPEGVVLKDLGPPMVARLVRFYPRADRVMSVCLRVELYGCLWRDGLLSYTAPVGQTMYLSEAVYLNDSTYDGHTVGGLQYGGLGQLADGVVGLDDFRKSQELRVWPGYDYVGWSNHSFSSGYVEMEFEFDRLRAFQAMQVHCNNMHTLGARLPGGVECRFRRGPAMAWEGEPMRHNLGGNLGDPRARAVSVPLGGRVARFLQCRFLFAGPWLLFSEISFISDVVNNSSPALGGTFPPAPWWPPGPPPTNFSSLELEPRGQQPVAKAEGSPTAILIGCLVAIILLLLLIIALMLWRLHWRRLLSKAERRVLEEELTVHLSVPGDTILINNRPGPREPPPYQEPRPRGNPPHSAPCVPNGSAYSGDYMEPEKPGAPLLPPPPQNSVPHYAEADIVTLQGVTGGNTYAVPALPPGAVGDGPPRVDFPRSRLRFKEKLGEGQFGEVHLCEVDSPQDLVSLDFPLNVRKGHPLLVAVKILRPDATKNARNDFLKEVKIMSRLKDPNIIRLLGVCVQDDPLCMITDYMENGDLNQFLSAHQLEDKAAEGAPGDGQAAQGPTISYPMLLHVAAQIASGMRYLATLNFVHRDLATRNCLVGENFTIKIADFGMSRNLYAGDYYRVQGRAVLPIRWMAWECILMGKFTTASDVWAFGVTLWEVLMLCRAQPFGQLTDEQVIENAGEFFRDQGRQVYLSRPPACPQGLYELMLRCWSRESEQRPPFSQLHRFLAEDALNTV
T1 sequence (Q08345 19-913): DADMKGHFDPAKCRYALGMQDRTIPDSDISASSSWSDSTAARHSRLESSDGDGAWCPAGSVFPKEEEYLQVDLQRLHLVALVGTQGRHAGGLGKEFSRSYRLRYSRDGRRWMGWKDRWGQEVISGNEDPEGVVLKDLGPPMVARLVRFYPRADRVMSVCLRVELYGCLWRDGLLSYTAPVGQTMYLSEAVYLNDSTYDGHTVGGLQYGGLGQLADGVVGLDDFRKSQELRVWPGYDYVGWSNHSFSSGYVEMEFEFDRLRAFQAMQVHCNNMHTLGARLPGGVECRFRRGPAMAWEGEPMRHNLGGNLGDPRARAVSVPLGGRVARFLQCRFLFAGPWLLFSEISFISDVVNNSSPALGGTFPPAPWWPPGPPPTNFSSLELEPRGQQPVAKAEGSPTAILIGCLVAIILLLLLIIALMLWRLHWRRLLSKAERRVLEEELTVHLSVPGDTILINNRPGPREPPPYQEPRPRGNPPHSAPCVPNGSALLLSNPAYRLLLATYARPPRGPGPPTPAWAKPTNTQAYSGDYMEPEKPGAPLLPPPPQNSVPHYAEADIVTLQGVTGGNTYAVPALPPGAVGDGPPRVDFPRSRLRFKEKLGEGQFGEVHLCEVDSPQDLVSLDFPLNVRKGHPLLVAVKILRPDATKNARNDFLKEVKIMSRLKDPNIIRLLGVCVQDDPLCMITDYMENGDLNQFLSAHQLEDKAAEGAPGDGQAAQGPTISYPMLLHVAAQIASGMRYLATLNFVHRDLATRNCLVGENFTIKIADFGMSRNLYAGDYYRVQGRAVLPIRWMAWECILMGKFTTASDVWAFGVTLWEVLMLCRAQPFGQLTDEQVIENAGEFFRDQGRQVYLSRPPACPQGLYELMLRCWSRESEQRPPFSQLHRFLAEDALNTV

Compound | IC50 [1] | Urinary albumin (% of vehicle-administered group) [2, 4] | IC50 [3] | Urinary albumin (% of vehicle-administered group) ([2]; dose 25 mg/kg twice a day for 7 days) | Urinary albumin (% of vehicle-administered group) [2, 5] | Urinary albumin (% of vehicle-administered group) ([2]; dose 5 mg/kg twice a day for 7 days) | Urinary albumin (% of vehicle-administered group) ([2]; dose 30 mg/kg twice a day for 7 days)
O=C(N[C@H]1C[C@H](OC(F)(F)F)C[C@@H]1O)c1ccc(OC(F)F)c(C#Cc2cncnc2)c1 [Example 1, 4-(Difluoromethoxy)-N-[(1S,2S,4S)-2-hydroxy-4-(trifluoromethoxy)cyclopentyl]-3-[(pyrimidin-5-yl)ethynyl]benzamide] | 29 nM | 70 % of vehicle-administered grou | 7 nM |  |  |  | 
Nc1ncc(C#Cc2cc(C(=O)N[C@H]3C[C@H](OC(F)(F)F)C[C@@H]3O)ccc2OC(F)F)cn1 [Example 3, 3-[2-(2-Aminopyrimidin-5-yl)ethynyl]-4-(difluoromethoxy)-N-[(1S,2S,4S)-2-hydroxy-4-(trifluoromethoxy)cyclopentyl]benzamide] | 3.6 nM | 78 % of vehicle-administered grou | 0.86 nM |  |  |  | 
Nc1cnc(C#Cc2cc(C(=O)N[C@H]3C[C@H](OC(F)(F)F)C[C@@H]3O)ccc2OC(F)F)cn1 [Example 4, 3-[2-(5-Aminopyrazin-2-yl)ethynyl]-4-(difluoromethoxy)-N-[(1S,2S,4S)-2-hydroxy-4-(trifluoromethoxy)cyclopentyl]benzamide] | 18 nM |  | 0.56 nM | 69 % of vehicle-administered grou |  |  | 
COc1nc(N)ncc1C#Cc1cc(C(=O)N[C@H]2C[C@H](OC(F)(F)F)C[C@@H]2O)ccc1OC(F)F [Example 5, 3-[2-(2-Amino-4-methoxypyrimidin-5-yl)ethynyl]-4-(difluoromethoxy)-N-[(1S,2S,4S)-2-hydroxy-4-(trifluoromethoxy)cyclopentyl]benzamide] | 1.8 nM |  | 0.25 nM |  | 57 % of vehicle-administered grou |  | 
Cn1cc(C#Cc2cc(C(=O)N[C@H]3C[C@H](OC(F)(F)F)C[C@@H]3O)ccc2OC(F)F)cn1 [Example 6, 4-(Difluoromethoxy)-N-[(1S,2S,4S)-2-hydroxy-4-(trifluoromethoxy)cyclopentyl]-3-[2-(1-methyl-1H-pyrazol-4-yl)ethynyl]benzamide] | 58 nM |  | 0.39 nM |  |  | 72 % of vehicle-administered grou | 
Nc1cnc(C#Cc2cc(C(=O)N[C@H](CO)CCOC(F)(F)F)ccc2OC(F)F)cn1 [Example 7, 3-[2-(5-Aminopyrazin-2-yl)ethynyl]-4-(difluoromethoxy)-N-[(2S)-1-hydroxy-4-(trifluoromethoxy)butan-2-yl]benzamide] | 50 nM |  | 4.4 nM |  |  |  | 69 % of vehicle-administered grou
Nc1cnc(/C(F)=C/c2cc(C(=O)N[C@H]3C[C@H](OC(F)(F)F)C[C@@H]3O)ccc2OC(F)F)cn1 [Example 10, 3-[(1Z)-2-(5-Aminopyrazin-2-yl)-2-fluoroethenyl]-4-(difluoromethoxy)-N-[(1S,2S,4S)-2-hydroxy-4-(trifluoromethoxy)cyclopentyl]benzamide] | 72 nM |  | 1.2 nM |  | 69 % of vehicle-administered grou |  | 
NC(=O)c1ncc2cc(-c3cc(C(=O)N[C@H]4CCCC[C@@H]4O)ccc3C(F)(F)F)ccn12 [Example 14, 7-(5-{[(1S,2S)-2-Hydroxycyclohexyl]carbamoyl}-2-(trifluoromethyl)phenyl)imidazo[1,5-a]pyridine-3-carboxamide] | 83 nM | 76 % of vehicle-administered grou | 2.5 nM |  |  |  | 
CCc1ccc(C(=O)N[C@H](CO)CCOC(F)(F)F)cc1NC(=O)c1cncc(OCC2CC2)c1 [Example 43, 5-(Cyclopropylmethoxy)-N-(2-ethyl-5-{[(2S)-1-hydroxy-4-(trifluoromethoxy)butan-2-yl]carbamoyl}phenyl)pyridine-3-carboxamide] | 240 nM |  | 68 nM |  |  |  | 
CCc1ccc(C(=O)N[C@H](CO)CCOC(F)(F)F)cc1NC(=O)c1cnc(NCC2CC2)s1 [Example 44, 2-[(Cyclopropylmethyl)amino]-N-(2-ethyl-5-{[(2S)-1-hydroxy-4-(trifluoromethoxy)butan-2-yl]carbamoyl}phenyl)-1,3-thiazole-5-carboxamide] | 15 nM |  | 9.4 nM |  |  |  | 
CCc1ccc(C(=O)N[C@H]2C[C@H](OC(F)(F)F)C[C@@H]2O)cc1NC(=O)c1cnc(NCC2CC2)s1 [Example 45, 2-[(Cyclopropylmethyl)amino]-N-(2-ethyl-5-{[(1S,2S,4S)-2-hydroxy-4-(trifluoromethoxy)cyclopentyl]carbamoyl}phenyl)-1,3-thiazole-5-carboxamide] | 6.8 nM |  | 1.3 nM |  |  |  | 
CCc1ccc(C(=O)N[C@H]2C[C@H](OC(F)(F)F)C[C@@H]2O)cc1NC(=O)c1cnc(C2CC2)s1 [Example 46, 2-Cyclopropyl-N-(2-ethyl-5-{[(1S,2S,4S)-2-hydroxy-4-(trifluoromethoxy)cyclopentyl]carbamoyl}phenyl)-1,3-thiazole-5-carboxamide] | 44 nM |  | 9.1 nM |  |  |  | 
CCc1ccc(C(=O)N[C@H](CO)CCOC(F)(F)F)cc1NC(=O)c1cnc(CC2CC2)s1 [Example 47, 2-(Cyclopropylmethyl)-N-(2-ethyl-5-{[(2S)-1-hydroxy-4-(trifluoromethoxy)butan-2-yl]carbamoyl}phenyl)-1,3-thiazole-5-carboxamide] | 59 nM |  | 51 nM |  |  |  | 
